Results: ChEMBL document CHEMBL4414624, “Terpenoids from the Stems of Fissistigma polyanthoides and Their Anti-Inflammatory Activity” (J Nat Prod, 2019)

What was measured:
[1] = (§1) Inhibition of LPS-induced NF-kappaB/AP-1 signalling cascade in human THP1-Blue-CD14 cells incubated for 24 hrs by quanti-blue SEAP assay; type: cell-based
[2] = species: Homo sapiens; experiment: as §1; type: cell-based
[3] = Cytotoxicity against LPS-stimulated human THP1-Blue-CD14 cells assessed as reduction in cell viability after 24 hrs by CellTiter-Blue based fluorescence analysis
[4] = Cytotoxicity against human THP1-Blue-CD14 cells assessed as reduction in cell viability after 24 hrs by CellTiter-Blue based fluorescence analysis

| Structure (SMILES) | IC50 [1] | inhibition [2] | IC50 [3] | IC50 [4] |
| --- | --- | --- | --- | --- |
| C=C1CC[C@@H](C(C)C)/C=C/[C@@](C)(O[C@@H]2O[C@H](CO)[C@@H](O)[C@H](O)[C@H]2OC(=O)/C=C/c2ccccc2)CCC1=O | 49 µM | Dose-dependent effect | 154 µM |  |
| CC(C)[C@H]1CC/C2=C/C(=O)CC[C@](C)(O[C@@H]3O[C@H](CO)[C@@H](O)[C@H](O)[C@H]3OC(=O)/C=C/c3ccccc3)C[C@@H]21 | 30.7 µM | Dose-dependent effect | 46.4 µM | 133 µM |
| CC(C)C1=CC[C@]2(C)[C@@H](O)CC[C@@](C)(O[C@@H]3O[C@H](CO)[C@@H](O)[C@H](O)[C@H]3OC(=O)/C=C/c3ccccc3)[C@H]2C1 | 20.8 µM | Dose-dependent effect | 29.5 µM | 39.1 µM |
| CC(C)[C@@H]1CC[C@@H](C)[C@@]23CC[C@](C)(O[C@@H]4O[C@H](CO)[C@@H](O)[C@H](O)[C@H]4OC(=O)/C=C/c4ccccc4)[C@@H]2[C@@H]13 | 13.7 µM | Dose-dependent effect | 21.6 µM | 29.2 µM |
| C[C@@H]1CC[C@H](C(C)(C)O[C@@H]2O[C@H](CO)[C@@H](O)[C@H](O)[C@H]2OC(=O)/C=C/c2ccccc2)CC2=C1CC[C@H]2C | 28.4 µM | Dose-dependent effect | 35.2 µM | 47.9 µM |
